According to US9932340B2, “Substituted indoles” (AbbVie Inc., priority 2014, dated 2018):

Biological target: SUV420H1 enzyme (Homo sapiens, UniProt Q4FZB7)
Experiment: TR-FRET SAH SUV420H1 enzyme inhibition assay
Assay type: biochemical
Conditions: Histone Peptide H4(8-30)me1 and SAM, overnight at room temp, TR-FRET detection of SAH, read-out: TR-FRET SAH_SUV420H1 IC50
Procedure, shortened: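 SUV420H1 (90 nM) preincubated 30 min with compound (3-fold dilutions, 50 to 0.00075 μM), then H4(8-30)me1 peptide 5 nM and SAM 4 nM added, overnight at room temp. SAH product detected by TR-FRET with Tb anti-SAH antibody and Oregon Green-SAH in RIPA buffer, 4 h; IC50 from Hill fit, asymptotes fixed 0-100%.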

SUV420H1 enzyme, sequence (Q4FZB7 whole entry): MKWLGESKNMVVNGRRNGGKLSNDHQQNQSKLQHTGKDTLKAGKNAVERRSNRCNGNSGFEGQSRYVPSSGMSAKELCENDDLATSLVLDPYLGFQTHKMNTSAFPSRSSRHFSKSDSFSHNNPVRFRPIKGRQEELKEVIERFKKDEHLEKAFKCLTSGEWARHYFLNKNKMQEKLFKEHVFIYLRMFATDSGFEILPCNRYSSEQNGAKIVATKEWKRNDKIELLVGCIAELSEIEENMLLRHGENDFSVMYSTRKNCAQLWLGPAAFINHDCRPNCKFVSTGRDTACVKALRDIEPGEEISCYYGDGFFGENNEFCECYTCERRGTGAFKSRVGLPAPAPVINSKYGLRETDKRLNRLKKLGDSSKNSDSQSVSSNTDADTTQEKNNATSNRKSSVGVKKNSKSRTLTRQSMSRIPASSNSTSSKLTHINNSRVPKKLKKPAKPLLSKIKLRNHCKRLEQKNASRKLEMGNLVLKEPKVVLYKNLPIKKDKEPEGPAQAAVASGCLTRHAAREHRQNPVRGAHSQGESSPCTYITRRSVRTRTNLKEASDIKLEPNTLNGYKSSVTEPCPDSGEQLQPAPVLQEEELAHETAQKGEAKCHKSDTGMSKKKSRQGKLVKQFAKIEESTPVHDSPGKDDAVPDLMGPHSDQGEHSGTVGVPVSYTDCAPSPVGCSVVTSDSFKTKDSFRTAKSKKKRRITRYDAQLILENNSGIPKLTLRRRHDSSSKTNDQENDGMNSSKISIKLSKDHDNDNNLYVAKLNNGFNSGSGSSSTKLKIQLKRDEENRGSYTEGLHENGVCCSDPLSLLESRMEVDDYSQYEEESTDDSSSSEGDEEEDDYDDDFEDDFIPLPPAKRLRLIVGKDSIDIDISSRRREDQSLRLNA

Row | IC50 | SMILES
1 | 0.225 µM | Cc1ccc(-c2cc(Cn3cnc4c(N)ncnc43)c3[nH]c(CNC(=O)c4c(C)noc4C)cc3c2)cc1 [Example 167, N-({7-[(6-amino-9H-purin-9-yl)methyl]-5-(4-methylphenyl)-1H-indol-2-yl}methyl)-3,5-dimethyl-1,2-oxazole-4-carboxamide]
2 | > 50 µM | Nc1ncnc2c1ncn2Cc1cc(Cl)cc2cc(CNC(=O)Cc3ccccc3F)[nH]c12 [Example 256, N-({7-[(6-amino-9H-purin-9-yl)methyl]-5-chloro-1H-indol-2-yl}methyl)-2-(2-fluorophenyl)acetamide]
3 | 14.1 µM | Cc1nc(N)c2ncn(Cc3cccc4cc[nH]c34)c2n1 [Example 4, 9-(1H-indol-7-ylmethyl)-2-methyl-9H-purin-6-amine]
4 | 2.76 µM | Nc1ncnc2c1ncn2Cc1cc(Cl)cc2cc(CNCc3ccc(Cl)c(Cl)c3)[nH]c12 [Example 213, 9-[(5-chloro-2-{[(3,4-dichlorobenzyl)amino]methyl}-1H-indol-7-yl)methyl]-9H-purin-6-amine]
5 | > 50 µM | Cc1n[nH]c2ncc(C(=O)NCc3cc4cc(Cl)cc(Cn5cnc6c(N)ncnc65)c4[nH]3)cc12 [Example 353, N-({7-[(6-amino-9H-purin-9-yl)methyl]-5-chloro-1H-indol-2-yl}methyl)-3-methyl-1H-pyrazolo[3,4-b]pyridine-5-carboxamide]
6 | 8.8 µM | Nc1ncnc2c1ncn2Cc1cc(Cl)cc2cc(CNC(=O)C3CCC3)[nH]c12 [Example 111, N-({7-[(6-amino-9H-purin-9-yl)methyl]-5-chloro-1H-indol-2-yl}methyl)cyclobutanecarboxamide]
7 | 4.03 µM | C=Cc1ccc(Cn2cnc3c(N)ncnc32)c2[nH]c(CN)cc12 [Example 63, 9-{[2-(aminomethyl)-4-ethenyl-1H-indol-7-yl]methyl}-9H-purin-6-amine]
8 | 7.27 µM | Nc1ncnc2c1ncn2Cc1cc(Cl)cc2cc(CNC(=O)c3cnc4[nH]ccc4c3Cl)[nH]c12 [Example 348, N-({7-[(6-amino-9H-purin-9-yl)methyl]-5-chloro-1H-indol-2-yl}methyl)-4-chloro-1H-pyrrolo[2,3-b]pyridine-5-carboxamide]
9 | 0.354 µM | CN(C)C(=O)c1ccc(-c2cc(Cn3cnc4c(N)ncnc43)c3[nH]c(CN)cc3c2)cc1 [Example 47, 4-{2-(aminomethyl)-7-[(6-amino-9H-purin-9-yl)methyl]-1H-indol-5-yl}-N,N-dimethylbenzamide]
10 | 1.7 µM | Nc1ncnc2c1ncn2Cc1cc(Cl)cc2cc(CNC(=O)c3cnc4[nH]cnc4c3)[nH]c12 [Example 333, N-({7-[(6-amino-9H-purin-9-yl)methyl]-5-chloro-1H-indol-2-yl}methyl)-3H-imidazo[4,5-b]pyridine-6-carboxamide]
11 | 0.947 µM | Nc1ncnc2c1ncn2Cc1cc(Cl)cc2cc(CNC(=O)c3ccc4cn[nH]c4c3)[nH]c12 [Example 342, N-({7-[(6-amino-9H-purin-9-yl)methyl]-5-chloro-1H-indol-2-yl}methyl)-1H-indazole-6-carboxamide]
12 | 2.84 µM | Nc1ncnc2c1ncn2Cc1cc(Cl)cc2cc(CNCc3ccccc3F)[nH]c12 [Example 214, 9-[(5-chloro-2-{[(2-fluorobenzyl)amino]methyl}-1H-indol-7-yl)methyl]-9H-purin-6-amine]
13 | 1.98 µM | Nc1ncnc2c1ncn2Cc1cc(Cl)cc2cc(CNC(=O)Cc3ccncc3)[nH]c12 [Example 232, N-({7-[(6-amino-9H-purin-9-yl)methyl]-5-chloro-1H-indol-2-yl}methyl)-2-(pyridin-4-yl)acetamide]
14 | 0.401 µM | Nc1ncnc2c1ncn2Cc1cc(Cl)cc2cc(CNC(=O)c3ccc4ncsc4c3)[nH]c12 [Example 335, N-({7-[(6-amino-9H-purin-9-yl)methyl]-5-chloro-1H-indol-2-yl}methyl)-1,3-benzothiazole-6-carboxamide]
15 | 3.34 µM | Nc1ncnc2c1ncn2Cc1cc(Cl)cc2cc(CNCc3ccccc3Cl)[nH]c12 [Example 210, 9-[(5-chloro-2-{[(2-chlorobenzyl)amino]methyl}-1H-indol-7-yl)methyl]-9H-purin-6-amine]
16 | 1.07 µM | Nc1ncnc2c1ncn2Cc1cc(Cl)cc2cc(CNC(=O)c3cccc(O)n3)[nH]c12 [Example 197, N-({7-[(6-amino-9H-purin-9-yl)methyl]-5-chloro-1H-indol-2-yl}methyl)-6-hydroxypyridine-2-carboxamide]
17 | 3.31 µM | COc1cccc(CNCc2cc3cc(Cl)cc(Cn4cnc5c(N)ncnc54)c3[nH]2)c1 [Example 249, 9-[(5-chloro-2-{[(3-methoxybenzyl)amino]methyl}-1H-indol-7-yl)methyl]-9H-purin-6-amine]
18 | > 50 µM | CC(=O)c1cc2cc(Cl)cc(Cn3cnc4c(N)ncnc43)c2[nH]1 [Example 87, 1-{7-[(6-amino-9H-purin-9-yl)methyl]-5-chloro-1H-indol-2-yl}ethanone]
19 | 0.0491 µM | Cc1cc(C#N)ccc1C(=O)NCc1cc2cc(C3=CCOCC3)cc(Cn3cnc4c(N)ncnc43)c2[nH]1 [Example 304, N-({7-[(6-amino-9H-purin-9-yl)methyl]-5-(3,6-dihydro-2H-pyran-4-yl)-1H-indol-2-yl}methyl)-4-cyano-2-methylbenzamide]
20 | 0.0889 µM | Cc1noc(C)c1C(=O)NCc1cc2cc(-c3ccc(S(N)(=O)=O)cc3)cc(Cn3cnc4c(N)ncnc43)c2[nH]1 [Example 166, N-({7-[(6-amino-9H-purin-9-yl)methyl]-5-(4-sulfamoylphenyl)-1H-indol-2-yl}methyl)-3,5-dimethyl-1,2-oxazole-4-carboxamide]
21 | 4.44 µM | COc1ccccc1CNCc1cc2cc(Cl)cc(Cn3cnc4c(N)ncnc43)c2[nH]1 [Example 250, 9-[(5-chloro-2-{[(2-methoxybenzyl)amino]methyl}-1H-indol-7-yl)methyl]-9H-purin-6-amine]
22 | 0.84 µM | Cc1nn(C)cc1C(=O)NCc1cc2cc(Cl)cc(Cn3cnc4c(N)ncnc43)c2[nH]1 [Example 184, N-({7-[(6-amino-9H-purin-9-yl)methyl]-5-chloro-1H-indol-2-yl}methyl)-1,3-dimethyl-1H-pyrazole-4-carboxamide]
23 | 1.05 µM | Nc1ncnc2c1ncn2Cc1cc(Cl)cc2cc(C(N)Cc3ccccc3)[nH]c12 (stereo not drawn) [Example 206, 9-{[2-(1-amino-2-phenylethyl)-5-chloro-1H-indol-7-yl]methyl}-9H-purin-6-amine]
24 | 6.41 µM | Nc1ncnc2c1ncn2Cc1cc(Cl)cc2cc(CNC(=O)C3CCCC3)[nH]c12 [Example 119, N-({7-[(6-amino-9H-purin-9-yl)methyl]-5-chloro-1H-indol-2-yl}methyl)cyclopentanecarboxamide]
25 | 0.2 µM | NCc1cc2c(C3=CCCC3)ccc(Cn3cnc4c(N)ncnc43)c2[nH]1 [Example 67, 9-{[2-(aminomethyl)-4-(cyclopent-1-en-1-yl)-1H-indol-7-yl]methyl}-9H-purin-6-amine]
26 | 6.26 µM | Cc1c(C)n(C)c2ccc(C(=O)NCc3cc4cc(Cl)cc(Cn5cnc6c(N)ncnc65)c4[nH]3)cc12 [Example 378, N-({7-[(6-amino-9H-purin-9-yl)methyl]-5-chloro-1H-indol-2-yl}methyl)-1,2,3-trimethyl-1H-indole-5-carboxamide]
27 | 1.94 µM | Cc1cccc(F)c1CNCc1cc2cc(Cl)cc(Cn3cnc4c(N)ncnc43)c2[nH]1 [Example 244, 9-[(5-chloro-2-{[(2-fluoro-6-methylbenzyl)amino]methyl}-1H-indol-7-yl)methyl]-9H-purin-6-amine]
